Legend:
Assay in all cases: relative viability (nuclei count vs DMSO), 5 days (fraction); higher = more cells survive
Zosuquidar + Vorinostat = compound: O[C@@H](COc1cccc2ncccc12)CN1CCN([C@@H]2c3ccccc3[C@@H]3[C@H](c4ccccc42)C3(F)F)CC1 [Zosuquidar] + O=C(CCCCCCC(=O)Nc1ccccc1)NO [Vorinostat] (partner 1 µM)
Summary of the method: (§1)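 One day after seeding in 1536-well plates, lung cancer cell lines were dosed by pin tool. Dosing was either single-drug or a fixed anchor-drug dose plus five library-drug doses (not always all listed) in √10 steps. After 5 days, nuclei were stained in one fix-and-stain step and counted on 4× images, and relative viability is the nuclei count of treated wells over that of vehicle wells, given as the median of duplicate plates.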

[1] = compound: COc1cc2nccc(Oc3ccc(NC(=O)C4(C(=O)Nc5ccc(F)cc5)CC4)cc3)c2cc1OC [Cabozantinib] + Cc1cc(Nc2cc(N3CCN(C)CC3)nc(Sc3ccc(NC(=O)C4CC4)cc3)n2)n[nH]1 [Tozasertib] (partner 0.1 µM)
Summary of the method: as §1

Kobe2602 + OSI-027 = compound: C1=CC(=CC=C1NC(=S)NNC2=C(C=C(C=C2[N+](=O)[O-])C(F)(F)F)[N+](=O)[O-])F [Kobe2602] + COc1cccc2cc(-c3nc([C@H]4CC[C@H](C(=O)O)CC4)n4ncnc(N)c34)[nH]c12 [OSI-027] (partner 0.5 µM)
Summary of the method: as §1

Zosuquidar + Crizotinib = compound: O[C@@H](COc1cccc2ncccc12)CN1CCN([C@@H]2c3ccccc3[C@@H]3[C@H](c4ccccc42)C3(F)F)CC1 [Zosuquidar] + C[C@@H](Oc1cc(-c2cnn(C3CCNCC3)c2)cnc1N)c1c(Cl)ccc(F)c1Cl [Crizotinib] (partner 1 µM)
Summary of the method: as §1

Cell Line	relative viability (Zosuquidar + Vorinostat; first compound 0.01 µM)	relative viability (Zosuquidar + Vorinostat; first compound 0.03162 µM)	relative viability (Zosuquidar + Vorinostat; first compound 0.3162 µM)	relative viability (Zosuquidar + Vorinostat; first compound 1 µM)	relative viability ([1]; first compound 0.02 µM)	relative viability ([1]; first compound 0.06325 µM)	relative viability ([1]; first compound 0.2 µM)	relative viability ([1]; first compound 0.6325 µM)	relative viability ([1]; first compound 2 µM)	relative viability (Kobe2602 + OSI-027; first compound 0.2 µM)	relative viability (Kobe2602 + OSI-027; first compound 0.6325 µM)	relative viability (Kobe2602 + OSI-027; first compound 2 µM)	relative viability (Kobe2602 + OSI-027; first compound 6.325 µM)	relative viability (Kobe2602 + OSI-027; first compound 20 µM)	relative viability (Zosuquidar + Vorinostat; first compound 0.1 µM)	relative viability (Zosuquidar + Crizotinib; first compound 0.01 µM)	relative viability (Zosuquidar + Crizotinib; first compound 0.03162 µM)	relative viability (Zosuquidar + Crizotinib; first compound 0.1 µM)	relative viability (Zosuquidar + Crizotinib; first compound 0.3162 µM)	relative viability (Zosuquidar + Crizotinib; first compound 1 µM)
SW 900	0.431	0.464	0.567	0.527	0.551	0.481	0.814	0.464	0.299	0.712	0.477	0.499	0.374	0.488						
NCI-H358	0.662	0.8	0.646	0.639	0.106	0.0894	0.103	0.0924	0.108	0.754	0.872	0.873	0.672	0.887	0.634	0.602	0.497	0.807	0.497	0.532
PC-3 [JPC-3]	0.817	0.91	0.916	0.416	0.928	1.04		0.938	0.861	0.715	0.736	0.74	0.784	0.759	0.589	0.861	0.981	0.878	0.964	0.946
NCI-H1651	0.576	0.604	0.607	0.501	0.861	0.739	0.754	0.706	0.48	0.604	0.663	0.674	0.618	0.652	0.471	0.849	0.965	0.854	0.869	0.87
HCC-827	0.761	0.786	0.849	0.999	0.456	0.481		0.436	0.414	0.787	0.743	0.755	0.762	0.718	0.714	0.931	0.923	0.937	0.871	0.872
HCC-366	0.309	0.424	0.897	0.352	0.705	0.108	0.101	0.065	0.0583	0.727	0.975	0.886	0.847	0.894	0.342	0.468	0.59	0.636	0.48	0.577
HARA	0.657	0.526	0.556	0.459	0.132	0.113	0.116	0.129	0.107	0.59	0.547	0.407	0.542	0.524	0.606	0.924	1.03	1.14	1.09	1.07
NCI-H520	0.639	0.51	0.664	0.835	0.52	0.442	0.432	0.392	0.386	0.281	0.287	0.227	0.235	0.266	0.71	0.727	0.68	0.737	0.834	0.828
NCI-H1299																0.938	1.01	1.03	0.982	0.928
SW 1573	0.584	0.831	0.851	0.928	0.149	0.146	0.18	0.148	0.177	0.722	0.535	0.531	0.62	0.303	1.23	0.873	0.728	0.791	0.775	0.833
CAL-12T	0.843	0.692	0.813	0.845	0.366	0.446	0.369	0.261	0.247	0.647	0.583	0.572	0.636	0.557	0.77	0.51	0.676	0.719	0.747	0.497
COR-L 105	0.961	0.826	0.891	0.875	0.397	0.457		0.361	0.342	0.631	0.784	0.623	0.82	0.843	0.777	0.953	0.727	0.788	0.838	0.73
NCI-H3122	0.984	1.03	1.07	1.07	0.412	0.431	0.385	0.42	0.458	0.902	0.903	0.957	0.853	1.12	0.894	0.271	0.274	0.24	0.275	0.252
NCI-H2228	0.972	0.61	0.895	0.869	0.342	0.306	0.296	0.29	0.196	0.658	0.684	0.549	0.416	0.722	0.935	0.524	0.598	0.44	0.338	0.607
RERF-LC-KJ	0.728	0.707	0.772	0.683	0.588	0.51	0.505	0.438	0.412	0.615	0.485	0.555	0.481	0.257	0.694	0.81	0.799	0.824	0.873	0.806
NCI-H441	0.666	0.97	0.867	0.962	0.646	0.72	0.673	0.509	0.649	0.616	0.563	0.536	0.631	0.783	0.728	0.681	0.788	0.689		0.742
A549																0.805	0.738	0.844	0.722	0.765
NCI-H2342	0.753	0.807	0.813	0.81	0.656	0.516	0.553	0.478	0.401	0.762	0.546	0.614	0.63	0.632	0.686					
NCI-H1623					0.4	0.42	0.427	0.443	0.455	0.457	0.448	0.424	0.374	0.433						
LCLC-97TM1	0.663	0.929	0.73	0.777	0.288	0.27	0.252	0.217	0.282	0.475	0.488	0.551	0.556	0.584		0.389	0.327		0.429	0.339

Cell Line	relative viability (Zosuquidar + Vorinostat; first compound 0.01 µM)	relative viability (Zosuquidar + Vorinostat; first compound 0.03162 µM)	relative viability (Zosuquidar + Vorinostat; first compound 0.3162 µM)	relative viability (Zosuquidar + Vorinostat; first compound 1 µM)	relative viability ([1]; first compound 0.02 µM)	relative viability ([1]; first compound 0.06325 µM)	relative viability ([1]; first compound 0.2 µM)	relative viability ([1]; first compound 0.6325 µM)	relative viability ([1]; first compound 2 µM)	relative viability (Kobe2602 + OSI-027; first compound 0.2 µM)	relative viability (Kobe2602 + OSI-027; first compound 0.6325 µM)	relative viability (Kobe2602 + OSI-027; first compound 2 µM)	relative viability (Kobe2602 + OSI-027; first compound 6.325 µM)	relative viability (Kobe2602 + OSI-027; first compound 20 µM)	relative viability (Zosuquidar + Vorinostat; first compound 0.1 µM)	relative viability (Zosuquidar + Crizotinib; first compound 0.01 µM)	relative viability (Zosuquidar + Crizotinib; first compound 0.03162 µM)	relative viability (Zosuquidar + Crizotinib; first compound 0.1 µM)	relative viability (Zosuquidar + Crizotinib; first compound 0.3162 µM)	relative viability (Zosuquidar + Crizotinib; first compound 1 µM)
NCI-H2087	0.666	0.707	0.667	0.77	0.271	0.24	0.225	0.248	0.204	0.695	0.544	0.501	0.574	0.652	0.739	0.839	1.05	0.817	0.915	0.836
NCI-H647	0.623	0.593	0.814	0.518	0.483	0.195	0.421	0.334	0.203	0.647	0.751	0.57	0.841	0.639	0.667	1.03	1.09	1.03	1.14	1.1
Calu-6																0.872	0.764	0.879	0.844	0.791
LCLC-103H	0.754	0.771	0.848	0.803	0.552	0.471	0.474	0.486	0.391	0.466	0.539	0.492	0.448	0.497	0.598	1.07	1.09	0.991	0.892	0.989
HCC-15	0.844	0.745	0.894	0.877	0.462	0.432	0.437	0.44	0.267	0.629	0.723	0.616	0.676	0.637	0.716	0.821	0.865	0.71	0.856	0.874
H3255	0.787	0.837	0.824	0.756	0.605	1.34		0.471	0.775	0.52	0.73	0.613	0.605	0.564	0.613	0.885	0.832	0.669	0.945	0.857
NCI-H1915	0.536	0.512	0.57	0.549	0.46	0.447	0.471	0.435	0.416	0.596	0.71	0.612	0.656	0.643	0.457	0.868	0.938	0.887	0.882	0.909
NCI-H1650	0.584	0.587	0.665	0.546	0.384	0.612	0.356	0.34	0.244	0.546	0.756	0.546	0.631	0.676	0.532	0.888	1.02	0.974	1.01	1.02
NCI-H661	0.802	0.834	0.828	0.778	0.374	0.361	0.388	0.393	0.375	0.691	0.71	0.731	0.8	0.672	0.763	0.993	1.07		1.05	0.906
NCI-H2126	0.768	0.862	0.757	0.891	0.865	0.937	0.816	0.814	0.848	0.715	0.778	0.675	0.678	0.701	0.478	0.92	0.987	0.911	1.04	1.07
NCI-H522	0.909	0.796	0.887	0.871	0.612	0.535	0.502	0.614	0.511	0.856	0.687	0.737	0.636	0.672	0.927					
NCI-H1395	0.746	0.783	1	0.698	0.796	0.779	0.794	0.756	0.719	0.633	0.866	0.717	0.731	0.651						
NCI-H1648	0.423	0.422	0.387	0.434	0.704	0.658	0.51	0.59	0.385	0.246	0.277	0.248	0.26	0.25	0.242					
NCI-H1792										0.728	0.732	0.821	0.5	0.625		0.912	0.771	0.776	0.954	0.977
NCI-H1703																0.785	1.13	0.682	0.582	1.01
EBC-1																0.193	0.214	0.201	0.201	0.205
NCI-H1793	0.745		1.06	0.629	0.663	0.427	0.271	0.257	0.169	0.252	0.218	0.238	0.275	0.327						
NCI-H1563										0.721	0.743	0.797	0.757	0.754		0.734	0.904	0.84	0.828	0.838
IA-LM	1.07	0.967	1.07	1.04													0.804	1.05	1.03	0.861

Source: the supplement of paper PMC10307832
